Experimental findings from PMC9246773, “Assessing the Activity of Antimicrobial Peptides Against Common Marine Bacteria Located in Rotifer (Brachionus plicatilis) Cultures” (Probiotics and Antimicrobial Proteins, 2022) are described below.

No end group written: not given here.

Common to all, as to type: cell-based
For test [1], the system named is Escherichia coli (ATCC 25922). The following applies: ATCC 25922, 48 h. The protocol: (§1) A range of bacterial species with the potential to be transferred to developing fish larvae as pathogens or probiotics were selected for use in the study (Table 2). Bacterial isolates were stored at −80 °C and thawed, and 25 µL of the isolates was spread onto marine salt agar (MSA) media. All isolates were incubated at 25 °C for 18 h to reach mid-log growth phase. All isolates were sub-cultured and identified using mass spectrometry (MALDI-TOF) using the BioTyper and MBT 8468 library (Bruker Pty Ltd). The isolate Tenacibaculum discolor was plated on Anacker and Oradal’s marine (AOM) media, incubated for 48 h and identified using the aforementioned method. Bacterial isolates were suspended in sterile saline (0.75% NaCl w/v) to 0.5 McFarland standard. […] The bacterial isolates T. discolor and Pseudoalteromonas sp. require marine salts to grow and were not added to MHB (0‰). The isolate T. discolor requires low nutrients to grow, therefore, a separate MHB (25‰) was prepared at a diluted ratio of 1 part MHB and 7 parts artificial seawater (25‰).
(§2) The protocol was followed to determine the minimum inhibitory concentration (MIC) of the selected peptides. Two MIC assays were performed, firstly to determine whether each peptide precipitated in MHB and thereby required acetic acid adjustments (supplementary materials) and secondly, to determine the antimicrobial activity of each peptide in artificial seawater (25‰). Peptide stock solutions (1.3 mg mL^−1) were made by diluting the peptides in sterile deionised water. MHB was made with deionised water to reach a concentration of approaching 0‰ and artificial sea salts (Sigma-Aldrich® S9883) to reach a salinity of 25‰.
(§3) Once the acetic acid requirement for each peptide was determined (Table 3), the antimicrobial activity of each peptide was tested at a salinity of 0‰ and 25‰ for all bacterial isolates. A stock solution for peptides that required acetic acid was prepared by a 1:2 dilution in acetic acid (0.02% acetic acid w/v, containing 0.4% BSA) solution. In a 96-well polypropylene microtitre plates (Costar® 3879), 100 µL of this peptide stock was added to the first well for each bacterial isolate tested and serially diluted twofold with acetic acid (0.01% acetic acid w/v, containing 0.2% BSA). From each well, 10 µL of each peptide concentration was added to the corresponding wells of a new 96-well microtitre plate. From each of the bacterial suspensions (0‰), 90 µL was added to each well. […] Twofold serial dilutions were made with MHB (0‰). From each of the bacterial suspensions (0‰), 50 µL was added to each well. The same method was followed for testing peptides in MHB at 25‰. All peptide concentrations ranged from 0.125 to 65 µg mL^−1, and the bacterial suspension in each well was approximately 5 × 10^5 CFU mL^−1. The different salinities were used to compare any differences in antimicrobial activity in 0‰ and 25‰ water. […] Each bacterium was trialled in duplicate.

Another test has as its system Pseudoalteromonas sp. The following applies: 48 h. On the procedure: as §1, §2, §3
Another test deals with Shewanella sp. To be noted: 48 h. The protocol:
as §1, §2, §3

Another test concerns Tenacibaculum discolor. The following applies: 48 h. On the procedure:
as §1, §2, §3

The subject of another test is Vibrio alginolyticus. The following applies: 48 h. The protocol: as §1, §2, §3
Test [2] has as its system Vibrio harveyi (ATCC 35084). To be noted: ATCC 35084, 48 h. The protocol:
as §1, §2, §3

Another test deals with Vibrio harveyi. To be noted: 48 h. The protocol: as §1, §2, §3
Another test deals with Vibrio rotiferianus. The following applies: 48 h. The protocol:
as §1, §2, §3

The next test relates to Vibrio scophthalmi. To be noted: 48 h. The protocol: as §1, §2, §3

KRWWKWWRR-NH2 [HHC36]: in test [1], the “MIC E. coli ATCC 25922, salinity 0‰” value was found to be 2.03 µg/mL and the “MIC E. coli ATCC 25922, salinity 25‰” value is > 65 µg/mL. Besides, the “MIC Pseudoalteromonas sp., salinity 25‰” value in the test on Pseudoalteromonas sp. was > 65 µg/mL. Besides, the “MIC Shewanella sp., salinity 25‰” value against Shewanella sp. was > 65 µg/mL. Besides, the “MIC T. discolor, salinity 25‰” value in the test with Tenacibaculum discolor is > 65 µg/mL. In the test with Vibrio alginolyticus, the “MIC V. alginolyticus, salinity 0‰” value is > 65 µg/mL and the “MIC V. alginolyticus, salinity 25‰” value was > 65 µg/mL. In addition, in test [2], the “MIC V. harveyi ATCC 35084, salinity 0‰” value was 32.5 µg/mL and the “MIC V. harveyi ATCC 35084, salinity 25‰” value was > 65 µg/mL. In the test with Vibrio harveyi, the “MIC V. harveyi, salinity 0‰” value turned out to be 32.5 µg/mL and the “MIC V. harveyi, salinity 25‰” value is > 65 µg/mL. Moreover, in the test with Vibrio rotiferianus, the “MIC V. rotiferianus, salinity 0‰” value is > 65 µg/mL and the “MIC V. rotiferianus, salinity 25‰” value is > 65 µg/mL. Further, in the test with Vibrio scophthalmi, the “MIC V. scophthalmi, salinity 0‰” value amounted to 2.03 µg/mL and the “MIC V. scophthalmi, salinity 25‰” value was > 65 µg/mL.
